Measured values taken from patent US10376480B2, “Biguanide derivative, a preparation method thereof, and a pharmaceutical composition containing the biguanide derivative as an active ingredient” (Immunomet Therapeutics Inc., priority 2010, dated 2019).
pIC50: −log10 of the molar value.

Assays:
[1] = system: HCT116 cells; assay: Inhibition of cancer cell proliferation (MTT, GIC50); format: cell-based; settings: Homo sapiens, HCT-116, 48 hours incubation
Protocol: HCT116 cells derived from human colorectal cancer were used, and an effect of a biguanide derivative on the inhibition of cancer cell proliferation was confirmed by measuring a concentration value (cell growth inhibition concentration, GIC50) at which 50% of the cell growth was inhibited using a 3-(4,5-dimethylthiazol-2-yl)-2,5-diphenytetrazolium bromide (MTT) reagent.
First, HCT116 cells were put on a 96-well plate and cultured in a DMEM medium containing 10% bovine serum for 24 hours to each have cell count of approximately 5000. Subsequently, to obtain the GIC50 value of each compound, 100 μM (or 200 μM), 25 μM, 6.25 μM, 1.56 μM or 0.39 μM of the compound was treated to each culture medium and then incubated for 48 hours. To confirm living cells after treatment with the compound, MTT was added to each culture medium and further incubated for 3 hours. Generated formazane crystal was dissolved using dimethyl sulfoxide (DMSO) and absorbance of the solution was measured at 560 nm. After the 48-hour incubation, a ratio of a cell count cultured on a well plate not treated with the compound to a cell count on a well plate treated with compounds synthesized in the examples was indicated as cell viability (%) according to each administered concentration. A cell viability curve was plotted using the cell viability (%), and the calculated concentration value (GIC50) of the compound, at which 50% of the growth was inhibited was, to confirm an effect on the inhibition of cancer cell proliferation.

[2] = system: 5′-AMP-activated protein kinase (AMPK); assay: AMPK activation (AMPKα Thr172 phosphorylation immunoassay) in MCF7 cells; format: cell-based, human; settings: MCF7 cells; for AMPK Activation (phosphorylated AMPKα Thr172): 50 μM compound, 24 hours; for fold induction at 50 µM: Homo sapiens, 24 h, 50 μM vs. 0 (cells without compound)
Protocol: MCF7 cells derived from human breast cancer cells were used, and an effect of a biguanide derivative on 5′-AMP-activated protein kinase (AMPK) activation was confirmed using an AMPKα immunoassay kit (Invitrogen, catalog No. KHO0651).
The MCF7 cells were put on a 6-well plate and incubated in a DMEM medium containing 10% fetal bovine serum in an incubator to which 5% CO2 was supplied to have a cell count of approximately 5×10^5. 50 μM of derivatives synthesized in the examples were treated to the each culture medium, and the cells were incubated for 24 hours. Subsequently, the cells were lysed by a method presented in the operation manual of the AMPKα immunoassay kit, and 20 μg of cell lysates were yielded through protein assay. A degree of phosphorylation of an AMPKα threonine 172nd residue (Thr172) from the cell lysates were confirmed according to a method presented in the operation manual of the AMPKα immunoassay kit to thereby obtain results.
In addition, an experiment was performed in the same manner as described in Experimental Example 2 using metformin as a control group, and the results of an effect on AMPK activation were compared to the effect on AMPK activation when 1 mM metformin was treated.

| pIC50 [1] | melting point [°C] | Compound | AMPK Activation (phosphorylated AMPKα Thr172) [2] | fold induction at 50 µM [2] |
| --- | --- | --- | --- | --- |
| < 4.00 | 129 to 131 | Cl.N=C(NC(=N)Nc1cccc(Cl)c1)Nc1cccc(Cl)c1 [Example 6, N1,N5-bis(3-chlorophenyl) Biguanide Hydrochloride] | 4.6 | 0.7 |
| 4.32 | 126 to 128 | CCCNC(=N)NC(=N)NCCc1ccccc1.Cl [Example 13, N1-(phenethyl)-N5-propyl Biguanide Hydrochloride] | 36.2 | 6.8 |
| < 3.70 | 131 to 133 | CCCCNC(=N)NC(=N)N(C)C.Cl [Example 18, N1,N1-dimethyl-N5-butyl Biguanide Hydrochloride] | 4.6 | 0.9 |
| < 4.00 | 141 to 142 | CN(Cc1ccccc1)C(=N)NC(=N)N(C)Cc1ccccc1.Cl [Example 40, N1,N1,N5,N5-bis((benzyl)(methyl)) Biguanide Hydrochloride] | 11.3 | 1.7 |
| < 4.00 | 189 to 190 | CCCN(CCC)C(=N)NC(=N)N(c1ccccc1)c1ccc(O)cc1.Cl [Example 39, N1,N1-dipropyl-N5,N5-(4-hydroxylphenyl)(phenyl) Biguanide Hydrochloride] | 28.8 | 4.2 |
| 4.33 | 143 to 146 | Cl.N=C(NCCc1ccccc1)NC(=N)NCC1CC1 [Example 14, N1-(phenethyl)-N5-cyclopropylmethyl Biguanide Hydrochloride] | 31.2 | 5.9 |
| < 3.70 | 115 to 117 | CCN(CC)C(=N)NC(=N)N(C)C1CCCCC1.Cl [Example 36, N1,N1-diethyl-N5,N5-(cyclohexyl)(methyl) Biguanide Hydrochloride] | 4.5 | 0.8 |
| < 3.70 | 175 to 177 | CNC(=N)NC(=N)N(C)C.Cl [Example 17, N1,N1,N5-trimethyl Biguanide Hydrochloride] | 5.5 | 1.1 |
| < 4.00 | 204 to 205 | Cl.N=C(NCCc1ccccc1)NC(=N)NCCc1ccccc1 [Example 16, N1,N5-bis(phenethyl) Biguanide Hydrochloride] | 4.7 | 0.7 |
